The text below walks through data of patent US9084770B2, “Modulation of insulin like growth factor I receptor expression in cancer” (Antisense Therapeutics, Ltd., priority 2008, dated 2015).

One data set deals with human IGF-IR mRNA. As to the kind of experiment: Antisense inhibition of human IGF-IR mRNA levels by quantitative RT-PCR (Table 1). Format: cell-based. The arrangement: %INHIB (human IGF-IR mRNA levels): concentration or dose not given beside the values. As to conditions: as shown in Table 1. An excerpt:
Treatment of A549 cell cultures with oligonucleotides targeting IGF-IR is as described in WO 2004/072284.
Quantitation of IGF-IR mRNA levels was accomplished by RT-PCR using the ABI PRISM (trademark) 7600, 7700, or 7900 Sequence Detection System (PE-Applied Biosystems, Foster City, Calif.) according to manufacturer's instructions. This is a closed-tube, non-gel-based, fluorescence detection system which allows high-throughput quantitation of PCR products in real-time. As opposed to standard PCR in which amplification products are quantitated after the PCR is completed, products in real-time quantitative PCR are quantitated as they accumulate. This is accomplished by including in the PCR reaction an oligonucleotide probe that anneals specifically between the forward and reverse PCR primers, and contains two fluorescent dyes. A reporter dye (e.g., FAM or JOE, obtained from either PE-Applied Biosystems, Foster City, Calif., Operon Technologies Inc., Alameda, Calif. or Integrated DNA Technologies Inc., Coralville, Iowa) is attached to the 5′-end of the probe and a quencher dye (e.g., TAMRA, obtained from either PE-Applied Biosystems, Foster City, Calif., Operon Technologies Inc., Alameda, Calif. or Integrated DNA Technologies Inc., Coralville, Iowa) is attached to the 3′-end of the probe. When the probe and dyes are intact, reporter dye emission is quenched by the proximity of the 3′ quencher dye. During amplification, annealing of the probe to the target sequence creates a substrate that can be cleaved by the 5′-exonuclease activity of Taq polymerase. […] With each cycle, additional reporter dye molecules are cleaved from their respective probes, and the fluorescence intensity is monitored at regular intervals by laser optics built into the ABI PRISM (trademark) Sequence Detection System. In each assay, a series of parallel reactions containing serial dilutions of mRNA from untreated control samples generates a standard curve that is used to quantitate the percent inhibition after antisense oligonucleotide treatment of test samples.
PCR reagents were obtained from Invitrogen Corporation, (Carlsbad, Calif.). RT-PCR reactions were carried out by adding 20 μL PCR cocktail (2.5×PCR buffer minus MgCl2, 6.6 mM MgCl2, 375 μM each of dATP, dCTP, […] and dGTP, 375 nM each of forward primer and reverse primer, 125 nM of probe, 4 Units RNAse inhibitor, 1.25 Units PLATINUM (registered trademark) Taq, 5 Units MuLV reverse transcriptase, and 2.5×ROX dye) to 96-well plates containing 30 μL total RNA solution (20-200 ng). The RT reaction was carried out by incubation for 30 minutes at 48° C. Following a 10 minute incubation at 95° C. to activate the PLATINUM (trademark) Taq, 40 cycles of a two-step PCR protocol were carried out: 95° C. for 15 seconds (denaturation) followed by 60° C. for 1.5 minutes (annealing/extension).
Gene target quantities obtained by RT-PCR are normalized using either the expression level of GAPDH, a gene whose expression is constant, or by quantifying total RNA using RiboGreen (trademark) (Molecular Probes, Inc. Eugene, Oreg.). GAPDH expression is quantified by RT-PCR, by being run simultaneously with the target, multiplexing, or separately. Total RNA is quantified using RiboGreen (trademark) RNA quantification reagent (Molecular Probes, Inc. Eugene, Oreg.). Methods of RNA quantification by RiboGreen (trademark) are taught in Jones et al., 1998.
Probes and primers to human IGF-IR were designed to hybridize to the IGF-IR nucleotide sequence, using published sequence information (GenBank accession number NM000875 (SEQ ID NO:76) or M69229 (SEQ ID NO:77) which is the 5′ untranslated of the IGF-IR gene sequence (see FIG. 6).
In accordance with the present invention, a series of antisense compounds were designed to target different regions of the human IGF-IR mRNA or the 5′ untranslated region, using published sequences set forth in NM000875 (SEQ ID NO:77) and M69229 (SEQ ID NO:76). […]
“323737 (antisense CTGCTTCGGCTGGACATGGT; listed as DNA, chemistry not fully specified) [compound 323737]”: the “inhibition of IGF-IR expression (lead compounds)” value was “demonstrated inhibition”. The same measure, in the same setting: next, “323744 (antisense CGTGGTTGCAGCTGTGGATA; listed as DNA, chemistry not fully specified) [compound 323744]”: “demonstrated inhibition”. Turning to “323747 (antisense CCAGCTTCTCAGCCTCGTGG; listed as DNA, chemistry not fully specified) [compound 323747]”, the “inhibition of IGF-IR expression (lead compounds)” value is on record as “demonstrated inhibition”.

The data set is the same for the next values; noted with them: quantitative RT-PCR; averages from 3 experiments.
“323727 (antisense GGAGTAATTCCCTTCTAGCT; listed as DNA, chemistry not fully specified) [compound 323727]”: the “%INHIB (human IGF-IR mRNA levels)” value was 21%. On the same count and under the same terms, next, “323728 (antisense TCCCACAGTTGCTGCAAGTT; listed as DNA, chemistry not fully specified) [compound 323728]”: 73%; “323729 (antisense ATGTTCCAGCTGTTGGAGCC; listed as DNA, chemistry not fully specified) [compound 323729]”: 72%. For “323730 (antisense CCACCATGTTCCAGCTGTTG; listed as DNA, chemistry not fully specified) [compound 323730]”, the “%INHIB (human IGF-IR mRNA levels)” value turned out to be 78%.

“323731 (antisense GTCCAGGGCTTCAGCCCATG; listed as DNA, chemistry not fully specified) [compound 323731]”: the “%INHIB (human IGF-IR mRNA levels)” value was found to be 74%.

Consider “323732 (antisense GTGAGGGTCACAGCCTTGAC; listed as DNA, chemistry not fully specified) [compound 323732]”, for which the “%INHIB (human IGF-IR mRNA levels)” value worked out at 59%.

Regarding “323733 (antisense CCATGGTGAGGGTCACAGCC; listed as DNA, chemistry not fully specified) [compound 323733]”, the “%INHIB (human IGF-IR mRNA levels)” value is given as 78%.

As to “323734 (antisense TTGGTGCGAATGTACAAGAT; listed as DNA, chemistry not fully specified) [compound 323734]”, the “%INHIB (human IGF-IR mRNA levels)” value is 61%.

As for “323735 (antisense ATTTTGTCTTTGGAGCAGTA; listed as DNA, chemistry not fully specified) [compound 323735]”, the “%INHIB (human IGF-IR mRNA levels)” value stood at 65%. Consider “323736 (antisense AGGAAATTCTCAAAGACTTT; listed as DNA, chemistry not fully specified) [compound 323736]”, for which the “%INHIB (human IGF-IR mRNA levels)” value is listed as 43%. Consider “323737 (antisense CTGCTTCGGCTGGACATGGT; listed as DNA, chemistry not fully specified) [compound 323737]”, for which the “%INHIB (human IGF-IR mRNA levels)” value was determined as 84%. As to “323738 (antisense TGTTCCTGCTTCGGCTGGAC; listed as DNA, chemistry not fully specified) [compound 323738]”, the “%INHIB (human IGF-IR mRNA levels)” value stood at 76%. As for “323739 (antisense CTGCTCTCAAAGAAAGGGTA; listed as DNA, chemistry not fully specified) [compound 323739]”, the “%INHIB (human IGF-IR mRNA levels)” value was 58%. For the substance “323740 (antisense CCACTCTGCTCTCAAAGAAA; listed as DNA, chemistry not fully specified) [compound 323740]”, the “%INHIB (human IGF-IR mRNA levels)” value came to 0%. Turning to “323741 (antisense GTTATCCACTCTGCTCTCAA; listed as DNA, chemistry not fully specified) [compound 323741]”, the “%INHIB (human IGF-IR mRNA levels)” value is listed as 57%. Turning to “323742 (antisense TCCTTGTTATCCACTCTGCT; listed as DNA, chemistry not fully specified) [compound 323742]”, the “%INHIB (human IGF-IR mRNA levels)” value turned out to be 58%. Same read-out and setting: next, “323743 (antisense TTGCAGCTGTGGATATCGAT; listed as DNA, chemistry not fully specified) [compound 323743]”: 53%. For “323744 (antisense CGTGGTTGCAGCTGTGGATA; listed as DNA, chemistry not fully specified) [compound 323744]”, the “%INHIB (human IGF-IR mRNA levels)” value is listed as 85%. Regarding “323745 (antisense AGCCTCGTGGTTGCAGCTGT; listed as DNA, chemistry not fully specified) [compound 323745]”, the “%INHIB (human IGF-IR mRNA levels)” value was 75%.

Turning to “323746 (antisense TTCTCAGCCTCGTGGTTGCA; listed as DNA, chemistry not fully specified) [compound 323746]”, the “%INHIB (human IGF-IR mRNA levels)” value is reported as 62%. Consider “323747 (antisense CCAGCTTCTCAGCCTCGTGG; listed as DNA, chemistry not fully specified) [compound 323747]”, for which the “%INHIB (human IGF-IR mRNA levels)” value was 85%. For the substance “323748 (antisense GCAGCCCAGCTTCTCAGCCT; listed as DNA, chemistry not fully specified) [compound 323748]”, the “%INHIB (human IGF-IR mRNA levels)” value was 77%. Regarding “323749 (antisense GCGCTGCAGCCCAGCTTCTC; listed as DNA, chemistry not fully specified) [compound 323749]”, the “%INHIB (human IGF-IR mRNA levels)” value is recorded as 71%. Consider “323750 (antisense TTTAAAAAGATGGAGTTTTC; listed as DNA, chemistry not fully specified) [compound 323750]”, for which the “%INHIB (human IGF-IR mRNA levels)” value was 8%. The same measure, in the same setting: next, “323751 (antisense GCCACTTTAAAAAGATGGAG; listed as DNA, chemistry not fully specified) [compound 323751]”: 77%; “323752 (antisense TCCTGTCTGGACACACATTC; listed as DNA, chemistry not fully specified) [compound 323752]”: 66%. With “323753 (antisense AAGAACACAGGATCTGTCCA; listed as DNA, chemistry not fully specified) [compound 323753]”, the “%INHIB (human IGF-IR mRNA levels)” value amounted to 38%.

Regarding “323754 (antisense CATAGAAGAACACAGGATCT; listed as DNA, chemistry not fully specified) [compound 323754]”, the “%INHIB (human IGF-IR mRNA levels)” value was 33%. Turning to “323755 (antisense GGAACGTACACATCAGCAGC; listed as DNA, chemistry not fully specified) [compound 323755]”, the “%INHIB (human IGF-IR mRNA levels)” value came out at 36%. Take “323756 (antisense ACTCCTTCATAGACCATCCC; listed as DNA, chemistry not fully specified) [compound 323756]”: the “%INHIB (human IGF-IR mRNA levels)” value came to 26%. The same measure, in the same setting: next, “323757 (antisense CGGAGATAACTTTTGAGATC; listed as DNA, chemistry not fully specified) [compound 323757]”: 35%; “323758 (antisense GAGACCGGAGATAACTTTTG; listed as DNA, chemistry not fully specified) [compound 323758]”: 29%. With “323759 (antisense ATTTTGACTGTGAAATCTTC; listed as DNA, chemistry not fully specified) [compound 323759]”, the “%INHIB (human IGF-IR mRNA levels)” value is listed as 13%. Take “323760 (antisense GCGATCTCCCAGAGGACGAC; listed as DNA, chemistry not fully specified) [compound 323760]”: the “%INHIB (human IGF-IR mRNA levels)” value stood at 72%.

With “323761 (antisense TGTAGTAGAAGGAGACCTCC; listed as DNA, chemistry not fully specified) [compound 323761]”, the “%INHIB (human IGF-IR mRNA levels)” value stood at 26%.
